One assay deals with A549 cells. Nature of the assay: EGFP pDNA transfection, flow cytometry, A549. The class given is cell-based. To be noted: myristoleyl aldehyde, 5 μM. Here is the method:
FIG. 6 EGFP pDNA transfection efficacy with amphiphiles (myristoleyl aldehyde hydrophobic tails were used in all cases) comprising peptide 7.3(L-H) and other short peptides structurally-derived from 7.3(L-H), in A549, HeLa and HepG2 cell lines. 5 μM of amphiphile and 2 ng/μL pDNA per well were used in the transfection experiments. “LF”=Lipofectamine® 2000 commercial reagent.
For cytometry-based assays, the delivery of pDNA encoding for the expression of eGFP gene (GFP) in HeLa and A549 cells was performed. Amphiphilic molecule stock solutions in DMSO were diluted with DMEM and freshly mixed with pDNA stock solutions in DMEM prior to transfection experiments, to afford several complexes at different amphiphile concentration (2.5-10 μM) while maintaining a constant final pDNA concentration of 2 ng/μL. The mixture was shaken for 30 min at room temperature before the addition to the cells. The cell medium was aspirated, and cells were washed twice with PBS. Finally, 50 μL of the complex's solution were added to the cells and incubated for 4 h. After the incubation, the medium was replaced by 100 μL of fresh DMEM supplemented with 10% FBS. […] Finally, the GFP fluorescent measurement was performed in a flow cytometer and the percentage of GFP positive (i.e., transfected cells) were quantified. […]

The next assay relates to Hela cells. As to the kind of experiment: EGFP pDNA transfection, flow cytometry, HeLa. The class given is cell-based. Conditions: myristoleyl aldehyde. Here is the method:
For cytometry-based assays, the delivery of pDNA encoding for the expression of eGFP gene (GFP) in HeLa and A549 cells was performed. Amphiphilic molecule stock solutions in DMSO were diluted with DMEM and freshly mixed with pDNA stock solutions in DMEM prior to transfection experiments, to afford several complexes at different amphiphile concentration (2.5-10 μM) while maintaining a constant final pDNA concentration of 2 ng/μL. The mixture was shaken for 30 min at room temperature before the addition to the cells. The cell medium was aspirated, and cells were washed twice with PBS. Finally, 50 μL of the complex's solution were added to the cells and incubated for 4 h. After the incubation, the medium was replaced by 100 μL of fresh DMEM supplemented with 10% FBS. 72 hours after transfection the DMEM was removed, and cells were cultured for 5 min with 100 μL of trypsin. Then, 100 μL of PBS (supplemented with 2% FBS and 1% EDTA 0.5M) were added. Finally, the GFP fluorescent measurement was performed in a flow cytometer and the percentage of GFP positive (i.e., transfected cells) were quantified. Amphiphile transfection efficiency was compared to control, non-treated cells and all experiments were done in triplicate.
7.3(Leu-His) peptide with D-amino acids was synthesized. This peptide would be more resistant to the degradation by proteases. The inventors studied the delivery of EGFP pDNA using amphiphiles comprising either enantiomer (either 7.3(Leu-His) peptide with D-amino acids or with L-amino acids) and myristoleyl aldehyde to compare their transfecting activity in HeLa cells. Number of EGFP expressing cells was measured by flow cytometry.
Experiments in cultured cells at different confluence levels were performed to check the effect of this parameter on the activity of amphiphile 7.3(Leu-His) M. As described above, transfection experiments are usually performed on cells seeded the day before at a cell concentration of 60,000 cell/mL (100 μL/well). In the current example, transfection experiments with EGFP pDNA are performed in HeLa cells two and four times more concentrated (120,000 and 240,000 cells/mL, respectively). […] However, for this experiment more volume of complex amphiphile/pDNA was needed as the cell concentration was increased (50, 100 and 200 μL of complexes were used for 60,000, 120,000 and 240,000 cells/mL, respectively).
Several structural modifications were performed on the peptide 7.3(Leu-His). The delivery of EGFP pDNA in HeLa cells using amphiphiles comprising these peptides and myristoleyl aldehyde was tested. The modifications consisted of the modification in the order of the amino acids, the replacement of 1 to 3 K* residues for O* residues and the addition of 1 or 2 R residues on the N-terminus. […]
In general terms: A flow cytometer gives signals particle by particle.

The mark [1] stands for this setting: 5 μM, cell lines of FIG. 6 other than A549.

Regarding “Ac-RK*HHK*K*R-NH2 (Ac-RKHHKKR-NH2; not fully specified (residues 2, 5, 6); printed as Ac-RK*HHK*K*R-NH2; also: linker on K* not given here) [V2-7.3(Leu-His)]”, in the assay with A549 cells, the “EGFP pDNA transfection efficiency compared with other amphiphiles” value is on record as “enhanced efficiency matching V1-7.3(Leu-His) M transfection efficiency”. Also, the “EGFP pDNA transfection efficiency as % of V1-7.3(Leu-His) M or 7.3(Leu-His) M” value in the assay on Hela cells (setting [1]) was “about 50%”.
In the case of “Ac-RHK*K*K*HR-NH2 (Ac-RHKKKHR-NH2; not fully specified (residues 3, 4, 5); printed as Ac-RHK*K*K*HR-NH2; also: linker on K* not given here) [V1-7.3(Leu-His)]”, in the assay with A549 cells, the “EGFP pDNA transfection efficiency compared with other amphiphiles” value is “about half”. Further, the “EGFP pDNA transfection efficiency compared with amphiphile 7.3(Leu-His) M” value with Hela cells (setting [1]) was “generally show the same transfection efficiency”.
As to “Ac-RK*HRK*K*H-NH2 [7.3(Leu-His) peptide with D-amino acids]”, the “EGFP pDNA transfecting activity, D- versus L-amino acid peptide” value in the assay on Hela cells (HeLa, flow cytometry) is “both peptides perform equally efficiently”.

For the origin of these results see patent US20250304623A1, “PEPTIDES FOR INTRACELLULAR DELIVERY” (UNIVERSIDADE DE SANTIAGO DE COMPOSTELA, priority 2022, published 2025).
